Data from patent US4839385A, “Use of manoalide and its derivatives for modifying calcium homeostasis” (The Regents of the University of California, priority 1987, dated 1989).

Key:
Format in all cases: cell-based
Mouse spleen cells = experiment: Effect of manoalide on Con A-induced rise in intracellular calcium in mouse spleen cells (FURA-2)
Procedure: When 40 μg/ml Con A was added to single cell suspensions of mouse spleen cells were prepared by the standard methods, a rapid rise in intracellular calcium was observed. This calcium signal is characteristic of calcium moving from outside the cell to inside through a plasma membrane channel. If calcium is removed from the external medium, the rise in intracellular calcium is completely absent.
(§1) The concentration of free intracellular calcium was determined by loading the cells with a calcium sensitive florescent dye, FURA-2® (Grynkiewicz, G., Poenig, M. and Tsien, R. J., Biol. Chem 260: 3440-3450, 1985). Fluorescence measurements and calibration curves were done the same as for Quin-2, Pandol, S., Schoeffield, M., Sachs, G. and Muallem, S. (J. Biol. Chem 10081-10086, 1985).
(§2) Once the cells were loaded, aliquots (10^6 cells/ml) were placed in cuvettes and the baseline intracellular calcium concentration determined.
(§3) Manoalide was dissolved in polyethylene glycol 400 or dimethylsulfoxide and added as indicated before the Con A was added to the cuvette.
(§4) *All cells were preincubated at 37° C. for 5 minutes before
(§5) addition of Con A (40 μg/ml).

Parietal cells = experiment: Acid secretion in parietal cells after carbachol or forskolin stimulation
EL-4 = experiment: Inhibition of growth of tumor cell line EL-4
Peptic cells [1] = experiment: CCK or carbachol stimulated increase in calcium (release from intracellular stores) in peptic cells
Procedure: (§6) Gastric glands contain both peptic cells (release of calcium from intracellular stores) and parietal cells (plasma membrane calcium channel). Gastric cells were isolated as described by Muallem, et. al. (Amer. J. Physiol. 248-G216-G228, 1985). Addition of CCK or carbachol to a final concentration of […] and 0.1 mM respectively were used to activate these cells. Muallem et al. (J. Biol. Chem.: In Press, 1986) have shown that these hormones stimulate these cells and result in an increase in free intracellular cytosolic calcium.
(§7) With peptic cells, the hormones CCK or carbachol cause release of calcium from intracellular stores. […] The calcium signal in these cells is different from that observed in the conconavalin stimulated release of calcium from spleen cells.
The calcium transient observed is characteristic of the release of calcium from intracellular stores. If calcium is removed from the extracellular medium it has no effect on the calcium signal.

[2] = system: plasma membrane calcium channels; experiment: Calcium entry through plasma membrane calcium channels, gastric glands; conditions: 1 μM and less
Excerpt: (§8) The effect of manoalide on intracellular calcium levels was investigated through experiments using gastric glands. These glands contain two types of cells that use either plasma membrane channels or release from intracellular stores to increase cytosolic calcium.

Human lymphocytes = experiment: Effect of manoalide on Con A-induced calcium rise in human lymphocytes (FURA-2); conditions: Lymphocyte, 5 min preincubation 37° C., Con A 40 μg/ml
Procedure: as §1, §2, §3
Similar results were obtained with human lymphocytes isolated and prepared according to the method of Muallem, et al.
as §4, §5

intracellular stores = experiment: Calcium release from intracellular stores, gastric glands; conditions: 30-50 μM
Excerpt: as §8

Peptic cells [3] = experiment: Pepsin secretion in peptic cells after CCK, carbachol or forskolin stimulation
Procedure: as §6, §7
To examine the correlation between secretion and the calcium signal, the effects of manoalide on pepsin secretion were quantitated (Table 3).

A431 cells = experiment: EGF-induced calcium signal in A431 human epidermoid carcinoma cells; conditions: 1.5 μM; 5 minutes; EGF 5 μg/ml
Procedure: The A431 cell line, human epidermoid carcinoma cell, can be activated with 5 μg/ml epidermal growth factor (EGF). Sawyer, S. T. and Cohen, S (Biochemistry 20, 6280-6286, 1981) have shown that EGF enhances calcium uptake in these cells.
A431 Cells were grown in 150 ml Falcon flasks containing Dulbecco's modified Eagle's medium (Gibco) supplemented with 10% fetal calf serum (Irvine Scientific) and gentamycin.

With `CC1=C(CC/C(C)=C/CCC2=CCC(C3=CC(=O)OC3O)OC2O)C(C)(C)CCC1` (centres unmarked) [manoalide] the “inhibition of the rise in intracellular calcium” value (Mouse spleen cells; 0.5 μM, 5 min preincubation 37° C., 40 μg/ml Con A) was “complete inhibition”, the “nature of the inhibition of the calcium signal” value (Mouse spleen cells; Con A 40 μg/ml) was “time dependent and irreversible” and the inhibition at 0.01 µM (Mouse spleen cells; Mus musculus, 0.01 μM, 5 min preincubation 37° C., Con A 40 μg/ml) was 0%. The inhibition at 0.1 µM (Mouse spleen cells; Mus musculus, 0.1 μM, 5 min preincubation 37° C., Con A 40 μg/ml) was 30%, the inhibition at 0.3 µM (Mouse spleen cells; Mus musculus, 0.3 μM, 5 min preincubation 37° C., Con A 40 μg/ml) was 70% and the inhibition at 1 µM (Mouse spleen cells; Mus musculus, 1.0 μM, 5 min preincubation 37° C., Con A 40 μg/ml) was 100%. For the same compound, the activity at 0.1 µM (Parietal cells; Carbachol Stimulation) was 50%, the activity at 0.1 µM (Parietal cells; Forskolin) was 100% and the activity at 0.5 µM (Parietal cells; Carbachol Stimulation) was 10%. The activity at 0.5 µM (Parietal cells; Forskolin) was 100%, the activity at 5 µM (Parietal cells; Carbachol Stimulation) was 0% and the activity at 5 µM (Parietal cells; Forskolin) was 100%. The activity at 50 µM (Parietal cells; Carbachol Stimulation) was 0%, the activity at 50 µM (Parietal cells; Forskolin) was 100% and the “acid secretion in parietal cells” value (Parietal cells; preincubation with 0.1-5.0 μM) was “blocked acid secretion”. The “tumor cell growth inhibition” value (EL-4) was “inhibited from growing”, the “inhibition of CCK or carbachol stimulated increase in calcium” value (Peptic cells [1]; 5 μM) was “no inhibition” and the “inhibition of the calcium signal” value (Peptic cells [1]; 50 μM or higher) was “showed inhibition of the calcium signal”. For the same compound, the “nature of the inhibition of the calcium signal” value (Peptic cells [1]; 50 μM or higher) was “irreversible and time dependent”, the “inhibition of the calcium signal” value (Peptic cells [1]; 60 μM) was “significant inhibition of the calcium signal” and the “calcium entering through the plasma membrane calcium channels” value [2] was “inhibits calcium from entering”. The inhibition at 0.05 µM (Human lymphocytes; 0.05 μM) was 0%, the inhibition at 0.1 µM (Human lymphocytes; 0.1 μM) was 15% and the inhibition at 0.25 µM (Human lymphocytes; 0.25 μM) was 30%. For the same compound, the inhibition at 0.5 µM (Human lymphocytes; 0.5 μM) was 65%, the inhibition at 1 µM (Human lymphocytes; 1.0 μM) was 100% and the “calcium release from intracellular stores” value (intracellular stores) was “blocks calcium release”. The activity at 0.1 µM (Peptic cells [3]; CCK Stimulation (N = 5)) was 100%, the activity at 0.1 µM (Peptic cells [3]; Carbachol (2)) was 100% and the activity at 0.1 µM (Peptic cells [3]; Forskolin (2)) was 100%. It also gave an activity at 0.5 µM (Peptic cells [3]; CCK Stimulation (N = 5)) of 105%, an activity at 0.5 µM (Peptic cells [3]; Carbachol (2)) of 110% and an activity at 0.5 µM (Peptic cells [3]; Forskolin (2)) of 100%. It also gave an activity at 5 µM (Peptic cells [3]; CCK Stimulation (N = 5)) of 115%, an activity at 5 µM (Peptic cells [3]; Carbachol (2)) of 110% and an activity at 5 µM (Peptic cells [3]; Forskolin (2)) of 100%. The activity at 50 µM (Peptic cells [3]; CCK Stimulation (N = 5)) was 60%, the activity at 50 µM (Peptic cells [3]; Carbachol (2)) was 40% and the activity at 50 µM (Peptic cells [3]; Forskolin (2)) was 100%. For the same compound, the minimal effective concentration (Peptic cells [3]; peptic cells, read-out: concentration below which no inhibition of the biological effect was observed) was greater than 50 µM and the “effect on the Ca signal” value (A431 cells) was “complete abolition”.
